This data set is described as follows: Solubility of CoQ10 in fish oil and fish oil concentrates under different conditions and time of storage. In kind it is physicochemical. Conditions: for Solubility of CoQ10 in 1812TG, confirmed solubility / Solubility of CoQ10 in 4020EE, confirmed solubility: heating prior storage. The text has this: CoQ10 was solubilized in 0355 EE (fish oil concentrate in ethylester form containing 3% EPA and 55% DHA), 4020EE (fish oil concentrate in ethylester form containing 40% EPA and 20% DHA) and 1812TG (purified fish oil containing 18% EPA and 12% of DHA) and the final solubility was examined under different conditions and time of storage. All of these starting oils were manufactured by Ocean Nutrition Canada, Mulgrave, NS).

`COC1=C(OC)C(=O)C(C/C=C(\C)CC/C=C(\C)CC/C=C(\C)CC/C=C(\C)CC/C=C(\C)CC/C=C(\C)CC/C=C(\C)CC/C=C(\C)CC/C=C(\C)CCC=C(C)C)=C(C)C1=O` [CoQ10ox, 2,3-dimethyoxy-5-methyl-6-decaprenyl-1,4-benzoquinone]: the “Solubility of CoQ10 in 0355EE, confirmed solubility” value reads like this: (0355EE (ethylester concentrate, 3% EPA, 55% DHA), solubility at RT, no heating prior storage) 6.6 %, w/w; (0355EE, solubility at 50° C.) 27%, w/w; (0355EE, storage at 4° C. (line after solubility at 50° C.)) 3.2%, w/w; (0355EE, storage at 4° C. for 24 h, no heating prior storage) 2.5 %, w/w. Moreover, the “Solubility of CoQ10 in 1812TG, confirmed solubility” value reads like this: (1812TG (purified fish oil, 18% EPA, 12% DHA), solubility at 50° C.) 11 %, w/w; (1812TG, storage at 4° C.) <2.9 %, w/w. The “Solubility of CoQ10 in 4020EE, confirmed solubility” value by setting is: (4020EE (ethylester concentrate, 40% EPA, 20% DHA), solubility at 50° C.) 9 %, w/w; (4020EE, storage at 4° C.) 5.7 %, w/w.

For the origin of these results see patent US20080139649A1, “Fatty Acid-Benzenediol Derivatives and Methods of Making and Using Thereof” (priority 2005, published 2008).
